Assay results from US20240299352A1, “COMBINATION THERAPIES WITH SETD2 INHIBITORS” (Epizyme, Inc., priority 2021, published 2024).

Test system: diffuse large B-cell lymphoma (DLBCL) cell lines
Assay: Pre-treatment model combination study with Cpd. No. 15 (7 days pre-treatment, then combination; Table G), CellTiter-Glo viability, Loewe Volume
Settings: 7 days pre-treatment with Cpd. No. 15, then combination; for Combination effect with Cpd. No. 15 (Loewe Volume class), Farage: cell line Farage (Cat. No. CRL-2630); for Combination effect with Cpd. No. 15 (Loewe Volume class), HT: cell line HT (Cat. No. CRL-2631); for Combination effect with Cpd. No. 15 (Loewe Volume class), OCILY7: cell line OCILY7 (Cat. No. ACC 688); for Combination effect with Cpd. No. 15 (Loewe Volume class), SUDHL4: cell line SUDHL4 (Cat. No. ACC 495); for Combination effect with Cpd. No. 15 (Loewe Volume class), WILL2: cell line WILL2 (Cat. No. ACC 652)

Structure (SMILES): CN(C)CCCOc1ccc(-c2ccc3ncc4c(c3c2)n(C2CCOCC2)c(=O)n4C)cn1 [AZD0156]
- Combination effect with Cpd. No. 15 (Loewe Volume class), Farage: Synergy (VLoewe>1: synergy)
- Combination effect with Cpd. No. 15 (Loewe Volume class), HT: Synergy (VLoewe>1: synergy)
- Combination effect with Cpd. No. 15 (Loewe Volume class), OCILY7: Synergy (VLoewe>1: synergy)
- Combination effect with Cpd. No. 15 (Loewe Volume class), SUDHL4: Synergy (VLoewe>1: synergy)
- Combination effect with Cpd. No. 15 (Loewe Volume class), WILL2: No Effect

Structure (SMILES): C=CCn1c(=O)c2cnc(Nc3ccc(N4CCN(C)CC4)cc3)nc2n1-c1cccc(C(C)(C)O)n1 [AZD1775]
- Combination effect with Cpd. No. 15 (Loewe Volume class), Farage: Synergy (VLoewe>1: synergy)
- Combination effect with Cpd. No. 15 (Loewe Volume class), HT: Additivity (between 1 and −1: additivity)
- Combination effect with Cpd. No. 15 (Loewe Volume class), OCILY7: Additivity (between 1 and −1: additivity)
- Combination effect with Cpd. No. 15 (Loewe Volume class), SUDHL4: Synergy (VLoewe>1: synergy)
- Combination effect with Cpd. No. 15 (Loewe Volume class), WILL2: Synergy (VLoewe>1: synergy)

Structure (SMILES): C[C@@H]1COCCN1c1cc(C2([S@](C)(=N)=O)CC2)nc(-c2cc[nH]c3nccc2-3)n1 [AZD6738]
- Combination effect with Cpd. No. 15 (Loewe Volume class), Farage: Synergy (VLoewe>1: synergy)
- Combination effect with Cpd. No. 15 (Loewe Volume class), HT: Additivity (between 1 and −1: additivity)
- Combination effect with Cpd. No. 15 (Loewe Volume class), OCILY7: Additivity (between 1 and −1: additivity)
- Combination effect with Cpd. No. 15 (Loewe Volume class), SUDHL4: Synergy (VLoewe>1: synergy)
- Combination effect with Cpd. No. 15 (Loewe Volume class), WILL2: No Effect

Structure (SMILES): NC(=O)Nc1cc(-c2cccc(F)c2)sc1C(=O)N[C@H]1CCCNC1 [AZD7762]
- Combination effect with Cpd. No. 15 (Loewe Volume class), Farage: Synergy (VLoewe>1: synergy)
- Combination effect with Cpd. No. 15 (Loewe Volume class), HT: Additivity (between 1 and −1: additivity)
- Combination effect with Cpd. No. 15 (Loewe Volume class), OCILY7: Additivity (between 1 and −1: additivity)
- Combination effect with Cpd. No. 15 (Loewe Volume class), SUDHL4: Synergy (VLoewe>1: synergy)
- Combination effect with Cpd. No. 15 (Loewe Volume class), WILL2: Additivity (between 1 and −1: additivity)

Structure (SMILES): COc1cccc2c1C(=O)c1c(O)c3c(c(O)c1C2=O)C[C@@](O)(C(=O)CO)C[C@@H]3O[C@H]1C[C@H](N)[C@H](O)[C@H](C)O1 [Doxorubicin (H)]
- Combination effect with Cpd. No. 15 (Loewe Volume class), Farage: Synergy (VLoewe>1: synergy)
- Combination effect with Cpd. No. 15 (Loewe Volume class), HT: Synergy (VLoewe>1: synergy)
- Combination effect with Cpd. No. 15 (Loewe Volume class), OCILY7: Additivity (between 1 and −1: additivity)
- Combination effect with Cpd. No. 15 (Loewe Volume class), SUDHL4: Synergy (VLoewe>1: synergy)
- Combination effect with Cpd. No. 15 (Loewe Volume class), WILL2: Synergy (VLoewe>1: synergy)

Structure (SMILES): CC[C@H](Nc1ncnc2[nH]cnc12)c1nc2cccc(F)c2c(=O)n1-c1ccccc1 [Idelalisib]
- Combination effect with Cpd. No. 15 (Loewe Volume class), Farage: Synergy (VLoewe>1: synergy)
- Combination effect with Cpd. No. 15 (Loewe Volume class), HT: Synergy (VLoewe>1: synergy)
- Combination effect with Cpd. No. 15 (Loewe Volume class), OCILY7: Additivity (between 1 and −1: additivity)
- Combination effect with Cpd. No. 15 (Loewe Volume class), SUDHL4: Synergy (VLoewe>1: synergy)

Structure (SMILES): NC1(c2ccc(-c3nc4ccn5c(=O)[nH]nc5c4cc3-c3ccccc3)cc2)CCC1 [MK2206]
- Combination effect with Cpd. No. 15 (Loewe Volume class), Farage: Synergy (VLoewe>1: synergy)
- Combination effect with Cpd. No. 15 (Loewe Volume class), HT: Synergy (VLoewe>1: synergy)
- Combination effect with Cpd. No. 15 (Loewe Volume class), OCILY7: Synergy (VLoewe>1: synergy)
- Combination effect with Cpd. No. 15 (Loewe Volume class), SUDHL4: Synergy (VLoewe>1: synergy)
- Combination effect with Cpd. No. 15 (Loewe Volume class), WILL2: Synergy (VLoewe>1: synergy)

Structure (SMILES): NC(=O)c1cccc2cn(-c3ccc([C@@H]4CCCNC4)cc3)nc12 [Niraparib]
- Combination effect with Cpd. No. 15 (Loewe Volume class), Farage: Synergy (VLoewe>1: synergy)
- Combination effect with Cpd. No. 15 (Loewe Volume class), HT: Synergy (VLoewe>1: synergy)
- Combination effect with Cpd. No. 15 (Loewe Volume class), OCILY7: Additivity (between 1 and −1: additivity)
- Combination effect with Cpd. No. 15 (Loewe Volume class), SUDHL4: Synergy (VLoewe>1: synergy)
- Combination effect with Cpd. No. 15 (Loewe Volume class), WILL2: Synergy (VLoewe>1: synergy)

Structure (SMILES): O=C(c1cc(Cc2n[nH]c(=O)c3ccccc23)ccc1F)N1CCN(C(=O)C2CC2)CC1 [Olaparib]
- Combination effect with Cpd. No. 15 (Loewe Volume class), Farage: Synergy (VLoewe>1: synergy)
- Combination effect with Cpd. No. 15 (Loewe Volume class), HT: Synergy (VLoewe>1: synergy)
- Combination effect with Cpd. No. 15 (Loewe Volume class), OCILY7: Additivity (between 1 and −1: additivity)
- Combination effect with Cpd. No. 15 (Loewe Volume class), SUDHL4: Synergy (VLoewe>1: synergy)
- Combination effect with Cpd. No. 15 (Loewe Volume class), WILL2: Synergy (VLoewe>1: synergy)

Structure (SMILES): COc1cc(Nc2ncc(F)c(Nc3ccc4c(n3)NC(=O)C(C)(C)O4)n2)cc(OC)c1OC [Tamatinib]
- Combination effect with Cpd. No. 15 (Loewe Volume class), Farage: Synergy (VLoewe>1: synergy)
- Combination effect with Cpd. No. 15 (Loewe Volume class), HT: Additivity (between 1 and −1: additivity)
- Combination effect with Cpd. No. 15 (Loewe Volume class), OCILY7: Additivity (between 1 and −1: additivity)
- Combination effect with Cpd. No. 15 (Loewe Volume class), SUDHL4: Synergy (VLoewe>1: synergy)
- Combination effect with Cpd. No. 15 (Loewe Volume class), WILL2: Additivity (between 1 and −1: additivity)

Structure (SMILES): CC(=O)Nc1cccc(-n2c(=O)n(C3CC3)c(=O)c3c(Nc4ccc(I)cc4F)n(C)c(=O)c(C)c32)c1 [Trametinib]
- Combination effect with Cpd. No. 15 (Loewe Volume class), Farage: Synergy (VLoewe>1: synergy)
- Combination effect with Cpd. No. 15 (Loewe Volume class), HT: Synergy (VLoewe>1: synergy)
- Combination effect with Cpd. No. 15 (Loewe Volume class), OCILY7: Synergy (VLoewe>1: synergy)
- Combination effect with Cpd. No. 15 (Loewe Volume class), SUDHL4: Synergy (VLoewe>1: synergy)
